The results in this text go back to patent publication US6596702B2, “Compositions for use in rehydration and nutrition during athletic exercise and methods of making same” (Elan Drug Delivery Limited, priority 1994, dated 2003).

The nature of data set [1]: Blood glucose levels with trehalose as carbohydrate source in a sports beverage. The data set is classed as in vivo. The settings on record: trehalose as primary carbohydrate source in sports beverages.
The nature of data set [2]: Tolerability of trehalose. The data set is classed as in vivo. The settings on record: humans.
The nature of data set [3]: Osmolarity of aqueous trehalose solution (Roebling Micro-Osmometer). It counts as physicochemical. As to the method: 5.0 to 11.34 g of trehalose dihydrate is dry blended at an rpm greater than 18,000 until the consistency of is a uniform powder. Thereafter, the trehalose dihydrate is dissolved in distilled deionized water to a final volume of 100 mL and an osmolarity of 300 mOsm or less. For 11.34 g of trehalose the measured value was 287 mOsm. Measurement of the osmolarity of the final mixture is made on a Roebling Micro-Osmometer.

Regarding `OC[C@H]1O[C@H](O[C@H]2O[C@H](CO)[C@@H](O)[C@H](O)[C@H]2O)[C@H](O)[C@@H](O)[C@@H]1O` [trehalose, α-D-glucopyranosyl-α-D-glucopyranoside], the “blood glucose levels over that of glucose alone” value in data set [1] is “two-fold”. Further, in data set [2], the tolerability entry is “well tolerated”. Also, the osmolarity in data set [3] (1 molar solution of trehalose) is 1665 mOsm; in data set [3] (11.34 g trehalose dihydrate in distilled deionized water, final volume 100 mL, stated isotonic value), 300 mOsm. Besides, the “osmolarity, measured value” in data set [3] (11.34 g trehalose dihydrate dissolved in distilled deionized water to a final volume of 100 mL) came out at 287 mOsm.
